Columns and labels:
[1] = Acute toxicity, LD50 in mice; format: in vivo, Mouse; conditions: in vivo, male mouse
Procedure: (§1) Each cyclodextrin (α-, β- and γ-) was administered via the following routes to rats and mice and LD50 was measured.

Mouse = assay: Acute toxicity, LD50 in mice; format: in vivo; conditions: female mouse
Procedure: as §1

[2] = Acute toxicity, LD50 in rats; format: in vivo, rat; conditions: in vivo, male rat
Procedure: as §1

rat = assay: Acute toxicity, LD50 in rats; format: in vivo; conditions: female rat
Procedure: as §1

bifidobacteria = assay: Intestinal proliferation of bifidobacteria in mice, viable count in feces; format: in vivo, female C3H/He mice; conditions: for Rate of proliferation (B/A), bifidobacteria / Viable count 7 days after (B) administration, bifidobacteria: 2.0 g/kg/day; for Rate of proliferation (B/A), bifidobacteria: 7 days after / before; for Viable count 7 days after (B) administration, bifidobacteria / Viable count before (A) administration, bifidobacteria: average of five mice
Procedure: The activity of cyclodextrin in promoting the intestinal proliferation of bifidobacteria was recognized by the results of test as described below. Namely, cyclodextrin was administered orally to test animals such as mouse at the dose of 2 g/kg of body weight per day for 2 weeks, and the number of viable intestinal bacteria such as bifidobacteria, Escherichia coli, Lactobacilli and Bacteroides sp. in the feces of the test animal seven days after the administration were counted by the conventional method. […] Namely, when the bifidobacteria-proliferating agent of the invention is administered to the living body, it is possible to proliferate only bifidobacteria in the intestine of the living body without disturbing the intraintestinal bacterial flora.
(§2) Each solution or suspension was administered to female C3H/He mice at 8th week after birth, one group consisting of 5 animals and the number of groups being four, the dosage being 2.0 g of cyclodextrin/kg of body weight/day, continuously for 2 weeks.
(§3) Before and 7 days after the administration, feces of each mouse was collected, and after diluting the collected feces with 100 times by weight of an anaerobic phosphate buffer and grinding the diluted feces, each 0.1 ml of the ground feces was inoculated on each culture medium (refer to Table 3) for the specified bacterial species, and the thus inoculated culture media were incubated at 37° C. for one to five days under the aerobic conditions or anaerobic conditions (according to the anaerobic grove box method).
BS agar anaerobic, 37° C., 5 days
(§4) After the incubation was over, the number of bifidobacteria, Escherichia coli, Lactobacilli and Bacteroides sp. in the culture medium was counted. The results are shown in Tables 4 to 7, the counts being the average of five mice.

Lactobacilli = assay: Viable count of Lactobacilli in feces of mice; format: in vivo, female C3H/He mice; conditions: for Rate of proliferation (B/A), Lactobacilli / Viable count 7 days after (B) administration, Lactobacilli: 2.0 g/kg/day; for Rate of proliferation (B/A), Lactobacilli: 7 days after / before; for Viable count 7 days after (B) administration, Lactobacilli / Viable count before (A) administration, Lactobacilli: average of five mice
Procedure: as §2, §3, §4

Bacteroides sp. = assay: Viable count of Bacteroides sp. in feces of mice; format: in vivo, female C3H/He mice; conditions: for Rate of proliferation (B/A), Bacteroides sp. / Viable count 7 days after (B) administration, Bacteroides sp.: 2.0 g/kg/day; for Rate of proliferation (B/A), Bacteroides sp.: 7 days after / before; for Viable count 7 days after (B) administration, Bacteroides sp. / Viable count before (A) administration, Bacteroides sp.: average of five mice
Procedure: as §2, §3
NBGT agar same as above
as §4

Escherichia coli = assay: Viable count of Escherichia coli in feces of mice; format: in vivo, female C3H/He mice; conditions: for Rate of proliferation (B/A), Escherichia coli / Viable count 7 days after (B) administration, Escherichia coli: 2.0 g/kg/day; for Rate of proliferation (B/A), Escherichia coli: 7 days after / before; for Viable count 7 days after (B) administration, Escherichia coli / Viable count before (A) administration, Escherichia coli: average of five mice
Procedure: as §2, §3
DHL agar aerobic, 37° C., one day
as §4

Compound	LD50 ([1]; ip, intraperitoneal) [mg/kg]	LD50 ([1]; sc, subcutaneous) [mg/kg]	LD50 ([1]; oral) [mg/kg]	LD50 (Mouse; intraperitoneal) [mg/kg]	LD50 (Mouse; oral) [mg/kg]	LD50 (Mouse; subcutaneous) [mg/kg]	LD50 ([2]; ip, intraperitoneal) [mg/kg]	LD50 ([2]; sc, subcutaneous) [mg/kg]	LD50 ([2]; oral) [mg/kg]	LD50 (rat; intraperitoneal) [mg/kg]	LD50 (rat; oral) [mg/kg]	LD50 (rat; subcutaneous) [mg/kg]	Rate of proliferation (B/A), bifidobacteria (bifidobacteria)	Viable count 7 days after (B) administration, bifidobacteria (bifidobacteria)	Viable count before (A) administration, bifidobacteria (bifidobacteria)	Rate of proliferation (B/A), Lactobacilli (Lactobacilli)	Viable count 7 days after (B) administration, Lactobacilli (Lactobacilli)	Viable count before (A) administration, Lactobacilli (Lactobacilli)	Rate of proliferation (B/A), Bacteroides sp. (Bacteroides sp.)	Viable count 7 days after (B) administration, Bacteroides sp. (Bacteroides sp.)	further results
OC[C@H]1O[C@@H]2O[C@H]3[C@H](O)[C@@H](O)[C@@H](O[C@H]4[C@H](O)[C@@H](O)[C@@H](O[C@H]5[C@H](O)[C@@H](O)[C@@H](O[C@H]6[C@H](O)[C@@H](O)[C@@H](O[C@H]7[C@H](O)[C@@H](O)[C@@H](O[C@H]1[C@H](O)[C@H]2O)O[C@@H]7CO)O[C@@H]6CO)O[C@@H]5CO)O[C@@H]4CO)O[C@@H]3CO [α-cyclodextrin]	> 900	> 900	> 12500	> 900	> 12500	> 900	> 1200	> 1500	> 12000	> 1200	> 12000	> 1500									
OC[C@H]1O[C@@H]2O[C@H]3[C@H](O)[C@@H](O)[C@@H](O[C@H]4[C@H](O)[C@@H](O)[C@@H](O[C@H]5[C@H](O)[C@@H](O)[C@@H](O[C@H]6[C@H](O)[C@@H](O)[C@@H](O[C@H]7[C@H](O)[C@@H](O)[C@@H](O[C@H]8[C@H](O)[C@@H](O)[C@@H](O[C@H]1[C@H](O)[C@H]2O)O[C@@H]8CO)O[C@@H]7CO)O[C@@H]6CO)O[C@@H]5CO)O[C@@H]4CO)O[C@@H]3CO [β-cyclodextrin]	> 900	> 900	> 12500	> 900	> 12500	> 900	> 1200	> 1500	> 12000	> 1200	> 12000	> 1500	1385	1.8 × 10^8 per g of the feces	1.3 × 10^5 per g of the feces	1.47	2.2 × 10^9 per g of the feces	1.5 × 10^9 per g of the feces	1.06	3.7 × 10^8 per g of the feces	Viable count before (A) administration, Bacteroides sp. (Bacteroides sp.): 3.5 × 10^8 per g of the feces; Rate of proliferation (B/A), Escherichia coli (Escherichia coli): 1.45; Viable count 7 days after (B) administration, Escherichia coli (Escherichia coli): 5.8 × 10^6 per g of the feces; Viable count before (A) administration, Escherichia coli (Escherichia coli): 4.0 × 10^6 per g of the feces
OC[C@H]1O[C@@H]2O[C@H]3[C@H](O)[C@@H](O)[C@@H](O[C@H]4[C@H](O)[C@@H](O)[C@@H](O[C@H]5[C@H](O)[C@@H](O)[C@@H](O[C@H]6[C@H](O)[C@@H](O)[C@@H](O[C@H]7[C@H](O)[C@@H](O)[C@@H](O[C@H]8[C@H](O)[C@@H](O)[C@@H](O[C@H]9[C@H](O)[C@@H](O)[C@@H](O[C@H]1[C@H](O)[C@H]2O)O[C@@H]9CO)O[C@@H]8CO)O[C@@H]7CO)O[C@@H]6CO)O[C@@H]5CO)O[C@@H]4CO)O[C@@H]3CO [γ-cyclodextrin]	> 900	> 900	> 12500	> 900	> 12500	> 900	> 1200	> 1500	> 12000	> 1200	> 12000	> 1500	90	1.8 × 10^6 per g of the feces	2.0 × 10^4 per g of the feces	0.78	7.0 × 10^8 per g of the feces	9.0 × 10^8 per g of the feces	3.00	3.0 × 10^8 per g of the feces	Viable count before (A) administration, Bacteroides sp. (Bacteroides sp.): 1.0 × 10^8 per g of the feces; Rate of proliferation (B/A), Escherichia coli (Escherichia coli): 0.93; Viable count 7 days after (B) administration, Escherichia coli (Escherichia coli): 7.0 × 10^6 per g of the feces; Viable count before (A) administration, Escherichia coli (Escherichia coli): 7.5 × 10^6 per g of the feces
dextrin [reference compound]													0.70	1.6 × 10^5 per g of the feces	2.3 × 10^5 per g of the feces	1.20	6.0 × 10^8 per g of the feces	5.0 × 10^8 per g of the feces	2.50	8.0 × 10^8 per g of the feces	activity to the proliferation of bifidobacteria, in words (bifidobacteria; mouse, oral, Table 7): did not exhibit such an activity; Viable count before (A) administration, Bacteroides sp. (Bacteroides sp.): 3.2 × 10^8 per g of the feces; Rate of proliferation (B/A), Escherichia coli (Escherichia coli): 0.80; Viable count 7 days after (B) administration, Escherichia coli (Escherichia coli): 7.2 × 10^6 per g of the feces; Viable count before (A) administration, Escherichia coli (Escherichia coli): 9.0 × 10^6 per g of the feces
